Laboratory results: US20220380375A1, “SUBSTITUTED AROMATIC FUSED RING DERIVATIVE AND COMPOSITION COMPRISING SAME, AND USE THEREOF” (Shenzhen TargetRx, Inc., priority 2019, published 2022)
Marks after values point to notes of the source that are not given here.

How the values were obtained:
[1] = test system: Ba/F3 KIF5B-RET cell line tumor model; test: Anti-tumor effect assay in Ba/F3 KIF5B-RET cell line tumor model (allograft); type: in vivo, female NPSG mice; conditions: for Tumor volume (x ± S), Day 0 of administration: 10 mg/kg p.o. QD × 14, day 0 (baseline); for TGI (%), Day 14 of administration / Tumor volume (x ± S), Day 14 of administration: 10 mg/kg p.o. QD × 14, day 14
Source text: (§1) The efficacy of compounds of the present disclosure in female NPSG mouse allograft models of two B-cell lymphoma cell lines Ba/F3 KIF5B-RET and Ba/F3 KIF5B-RET^G810R was verified.
(§2) Assay animals: Female NPSG mice, 6-8 weeks old (age of mice at the time of tumor cell inoculation), weighing 18-20 g, 60 mice, purchased from Shanghai Jihui Laboratory Animal Care Co., Ltd.
(§3) Assay methods: 1) Ba/F3 KIF5B-RET and Ba/F3 KIF5B-RET^G810R cells were respectively resuscitated and Cultured in vitro, and 3×10^7 cells of each type were obtained. 2) 60 female NPSG mice aged 6-8 weeks were adaptively bred for 1 week and then weighed. 4) After inoculation, tumor volume and body weight were measured once a week. When average tumor volume reached about […], mice inoculated with each type of Ba/F3 cells were randomly divided into 7 groups according to tumor volume and body weight, with 3 mice in each group. The administration was started immediately after grouping. The date of start of administration was regarded as day 0. Informations on administration and grouping were shown in Tables 5 and 6.5) After the start of the administration, the body weight and tumor volume of mice were measured twice a week. 6) After the end of the administration, the assay was over.
(§4) Assay observation and data collection: After tumor inoculation, morbidity and death of animals were observed every working day. Daily observation included tumor growth and effects of drugs on laboratory animals, such as changes in activity, changes in feeding and drinking, weight loss, changes in appearance of hair and eye, death and other clinical symptoms. Formula for calculating tumor volume is: tumor volume (mm^3)=½×(a×b^2) (wherein a represents the long diameter and b represents the short diameter)
(§5) Relative tumor inhibition rate TGI (%): TGI %=(1−T/C)×100%. T/C % is relative tumor proliferation rate, that is, a percentage value of relative tumor volume between treatment group and control group at a certain point in time. T and C are relative tumor volume (RTV, that is, the […] tumor volume at this time point and tumor volume at day 0) of treatment group and control group at a certain point in time, respectively.
(§6) Statistical analysis: For pairwise comparison, a T-Test analysis method was used, and for comparison of three or more groups, a One-Way ANOVA method was used. For comparison of potential synergistic effects, a Two-way ANOVA was used. SPSS 24.0 was used for all data. A p value less than 0.05 was considered a significant difference.

Ret wt = molecular target: T1, Ret wt (Homo sapiens, UniProt P07949); test: Inhibition of kinase, Ret wt (HTRF KinEASE-TK); type: biochemical
T1 construct: purchased Carna 08-159-10 ug
T1 sequence (P07949 29-1114): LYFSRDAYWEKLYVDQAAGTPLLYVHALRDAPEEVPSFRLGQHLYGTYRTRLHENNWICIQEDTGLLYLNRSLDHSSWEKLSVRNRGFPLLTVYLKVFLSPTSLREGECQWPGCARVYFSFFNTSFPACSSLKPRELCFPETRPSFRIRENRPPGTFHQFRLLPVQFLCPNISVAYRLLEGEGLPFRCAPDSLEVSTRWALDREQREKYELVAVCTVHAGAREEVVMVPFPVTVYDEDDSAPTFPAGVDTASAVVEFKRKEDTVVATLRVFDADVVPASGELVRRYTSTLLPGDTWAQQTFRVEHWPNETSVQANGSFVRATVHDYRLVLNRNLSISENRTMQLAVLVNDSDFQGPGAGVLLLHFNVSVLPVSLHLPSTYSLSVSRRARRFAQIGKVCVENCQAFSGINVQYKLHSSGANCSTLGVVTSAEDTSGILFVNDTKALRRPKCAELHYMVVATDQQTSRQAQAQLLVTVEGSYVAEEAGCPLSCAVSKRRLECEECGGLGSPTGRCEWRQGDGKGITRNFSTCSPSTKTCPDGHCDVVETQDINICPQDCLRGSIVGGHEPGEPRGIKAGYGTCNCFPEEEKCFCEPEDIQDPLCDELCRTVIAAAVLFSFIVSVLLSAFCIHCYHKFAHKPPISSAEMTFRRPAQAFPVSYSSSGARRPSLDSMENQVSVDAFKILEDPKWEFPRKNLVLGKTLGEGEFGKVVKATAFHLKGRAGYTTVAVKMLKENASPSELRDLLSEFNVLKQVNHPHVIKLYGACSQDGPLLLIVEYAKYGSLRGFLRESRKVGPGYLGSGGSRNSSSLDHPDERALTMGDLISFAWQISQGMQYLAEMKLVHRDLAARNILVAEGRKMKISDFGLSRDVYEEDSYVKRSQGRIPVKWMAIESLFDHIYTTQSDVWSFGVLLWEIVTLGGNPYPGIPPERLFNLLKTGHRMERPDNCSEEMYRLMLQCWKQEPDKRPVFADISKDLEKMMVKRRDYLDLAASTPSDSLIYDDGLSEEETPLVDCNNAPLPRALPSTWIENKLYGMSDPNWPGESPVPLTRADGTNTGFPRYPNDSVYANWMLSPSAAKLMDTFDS
Description: (§7) Ret wt (Carna, Cat. No. 08-159-10 ug), RET (V804M), Active (Signalchem. Cat. No. R02—12GG), HTRF KinEASE-TK kit (Cisbio, Cat. No.62TK0PEC), CEP-32496 (MCE, Cat. No. HY-15200), ATP (Sigma. Cat. No. A7699), DMSO (Sigma, Cat. No. D8418-1L), DTT (Sigma, Cat. No. D0632), MgCl2(Sigma, Cat. No. M1028), 384-well plate (Labcyte, Cat. No. P-05525-BC).
(§8) Formulation of compound: The test compounds were dissolved in DMSO to obtain 10 mM stock solutions, which were then serially diluted 3-fold in DMSO to obtain 10 concentrations. At the time of addition, the compound was further diluted 10-fold with buffer.
(§9) In 5×kinase buffer A, Ret wt or RET V804M kinase was mixed with different concentrations of compounds prepared by pre-dilution for 10 minutes. Each concentration was tested in duplicate. The corresponding substrate and ATP were added, and reaction was performed at room temperature for 20 minutes (negative and positive controls were provided: the negative control was a blank control, and the positive control was CEP-32496 (Agerafenib)). After completion of the reaction, detection reagents (reagents in the HTRF KinEASE-TK kit) were added. After incubating for 30 minutes at room temperature, enzyme activity in the presence of various concentrations of the compounds of the present disclosure was determined by Envision microplate reader, and inhibitory activity of different concentrations of the compounds on enzyme activity was calculated. The inhibitory activity of different concentrations of the compounds on enzyme activity was fitted by Graphpad 5.0 software, and the IC50 value was calculated.

[2] = Safety assay (body weight, tolerability) in Ba/F3 KIF5B-RET cell line tumor model; type: in vivo; conditions: for Number of animals at the beginning/end of assay: 10 mg/kg p.o. QD × 14; for Average weight g (x ± S), Day 0 of administration: 10 mg/kg p.o. QD × 14, day 0 (baseline); for Average weight g (x ± S), Day 14 of administration / Weight change rate (%), Day 14 of administration: 10 mg/kg p.o. QD × 14, day 14; for tolerability (weight loss, drug withdrawal, drug toxicity): during the treatment
Description: as §3, §4

RET V804M = molecular target: T2, RET V804M (Homo sapiens, UniProt P07949, V804M); test: Inhibition of kinase, RET V804M (HTRF KinEASE-TK); type: biochemical
T2 construct: purchased Signalchem R02—12GG
T2 sequence (P07949 29-1114 V804M): as the sequence (P07949 29-1114) above, with V776M counted along it
Description: as §7, §8, §9

[3] = test system: Ba/F3 KIF5B-RET^G810R cell line tumor model; test: Anti-tumor effect assay in Ba/F3 KIF5B-RET^G810R cell line tumor model (allograft); type: in vivo, female NPSG mice; conditions: for Tumor volume (x ± S), Day 0 of administration / Tumor volume (x ± S), Day 13 of administration / TGI (%), Day 13 of administration: Ba/F3 KIF5B-RET^G810R model; for Tumor volume (x ± S), Day 0 of administration: 25 mg/kg p.o. QD × 13, day 0 (baseline); for Tumor volume (x ± S), Day 13 of administration / TGI (%), Day 13 of administration: 25 mg/kg p.o. QD × 13, day 13; for TGI (%), Day 13 of administration: TGI more than 100% = decrease in tumor volume; for relative tumor inhibition rate TGI (%): day 13 of administration, AD80 group 25 mg/kg
Source text: as §1, §2, §3, §4, §5, §6

[4] = Safety assay (body weight, tolerability) in Ba/F3 KIF5B-RET^G810R cell line tumor model; type: in vivo; conditions: for Number of animals at the beginning/end of assay: 25 mg/kg p.o. QD × 13; for Average weight g (x ± S), Day 0 of administration: 25 mg/kg p.o. QD × 13, day 0 (baseline); for Average weight g (x ± S), Day 13 of administration / Weight change rate (%), Day 13 of administration: 25 mg/kg p.o. QD × 13, day 13; for tolerability (weight loss, drug withdrawal, drug toxicity): during the treatment
Description: as §3, §4

| SMILES | Tumor volume (x ± S), Day 0 of administration [1] [mm^3] | TGI (%), Day 14 of administration [1] [%] | Tumor volume (x ± S), Day 14 of administration [1] [mm^3] | IC50 (Ret wt) [pM] | Number of animals at the beginning/end of assay [2] | Average weight g (x ± S), Day 0 of administration [2] [g] | Average weight g (x ± S), Day 14 of administration [2] [g] | Weight change rate (%), Day 14 of administration [2] [%] | tolerability (weight loss, drug withdrawal, drug toxicity) [2] | IC50 (RET V804M) [pM] | Tumor volume (x ± S), Day 0 of administration [3] [mm^3] | Tumor volume (x ± S), Day 13 of administration [3] [mm^3] | TGI (%), Day 13 of administration [3] | relative tumor inhibition rate TGI (%) [3] [%] | Number of animals at the beginning/end of assay [4] | Average weight g (x ± S), Day 0 of administration [4] [g] | Average weight g (x ± S), Day 13 of administration [4] [g] | Weight change rate (%), Day 13 of administration [4] [%] | tolerability (weight loss, drug withdrawal, drug toxicity) [4] |
| --- | --- | --- | --- | --- | --- | --- | --- | --- | --- | --- | --- | --- | --- | --- | --- | --- | --- | --- | --- |
| CC(C)n1nc(-c2ccc(NC(=O)Nc3cc(C(C)(C)C(F)(F)F)on3)cc2)c2c(N)ncnc21 [Compound T-2, 1-(4-(4-amino-1-isopropyl-1H-pyrazolo[3,4-d]pyrimidin-3-yl)phenyl)-3-(5-(1,1,1-trifluoro-2-methylprop-2-yl)isoxazol-3-yl)urea] | 102 ± 5.51 | 63.9 | 588.7 ± 25.3 | ≤ 500 | 3/3 | 20.1 ± 0.56 | 21.7 ± 0.59 | 8.1 | well tolerated | 1000 to 10000 | 94.3 ± 3.84 | 150.7 ± 4.33 | 84.6% | 84.6 | 3/3 | 19.6 ± 0.47 | 21.7 ± 0.74 | 11.05 | well tolerated |
| CC(C)n1nc(-c2ccc(CC(=O)Nc3cc(C(C)(C)C(F)(F)F)on3)c(F)c2)c2c(N)ncnc21 [Compound T-6, 2-(4-(4-amino-1-isopropyl-1H-pyrazolo[3,4-d]pyrimidin-3-yl)-2-fluorophenyl)-N-(5-(1,1,1-trifluoro-2-methylprop-2-yl)isoxazol-3-yl)acetamide] | 104 ± 3.61 | 99.7 | 108.7 ± 31.33 | ≤ 500 | 3/3 | 19.3 ± 0.57 | 21 ± 0.91 | 8.8 | well tolerated | 500 to 1000 | 93 ± 8.33 | 89.7 ± 4.48 | 100.9%# | 100.9 | 3/3 | 19.4 ± 0.66 | 22.4 ± 0.46 | 15.75 | well tolerated |
| CC(C)n1nc(-c2ccc(CC(=O)Nc3cc(C(C)(C)C(F)(F)F)on3)cc2)c2c(N)ncnc21 [Compound T-1, 2-(4-(4-amino-1-isopropyl-1H-pyrazolo[3,4-d]pyrimidin-3-yl)phenyl)-N-(5-(1,1,1-trifluoro-2-methylprop-2-yl)isoxazol-3-yl)acetamide] | 102.7 ± 6.06 | 90.3 | 233 ± 65.74 | ≤ 500 | 3/3 | 20.9 ± 1.06 | 21.6 ± 1.05 | 3.4 | well tolerated | ≤ 500 | 98 ± 3.61 | 63.7 ± 16.19 | 109.4%# | 109.4 | 3/3 | 20.3 ± 1.32 | 21.3 ± 1.19 | 4.90 | well tolerated |
